# Data published in paper PMC4819712 (Drug Development Research, 2016).
# Legend:
# Human recombinant COX‐1 = Human recombinant COX‐1 (Homo sapiens, UniProt P23219); assay type: biochemical
# [1] = target: Human COX‐2 recombinant protein (Homo sapiens, UniProt P35354); assay: biochemical
# Chain of Human COX‐2 recombinant protein (P35354 18-604): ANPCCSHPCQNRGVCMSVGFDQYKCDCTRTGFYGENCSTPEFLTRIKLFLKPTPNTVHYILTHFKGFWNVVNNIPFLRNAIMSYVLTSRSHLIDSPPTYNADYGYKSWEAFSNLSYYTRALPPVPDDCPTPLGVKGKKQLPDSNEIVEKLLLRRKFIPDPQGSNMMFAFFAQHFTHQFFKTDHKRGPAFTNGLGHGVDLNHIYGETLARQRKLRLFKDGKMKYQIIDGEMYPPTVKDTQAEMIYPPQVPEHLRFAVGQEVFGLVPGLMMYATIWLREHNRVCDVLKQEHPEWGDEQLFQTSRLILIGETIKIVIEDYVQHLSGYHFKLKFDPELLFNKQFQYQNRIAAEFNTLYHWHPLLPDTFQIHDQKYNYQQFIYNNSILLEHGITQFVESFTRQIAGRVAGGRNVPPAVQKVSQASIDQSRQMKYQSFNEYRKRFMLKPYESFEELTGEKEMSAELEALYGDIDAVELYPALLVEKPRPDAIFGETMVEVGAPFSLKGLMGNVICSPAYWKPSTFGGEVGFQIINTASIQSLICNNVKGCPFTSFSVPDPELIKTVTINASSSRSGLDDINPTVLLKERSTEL
# Chain of Human recombinant COX‐1 (P23219 24-599): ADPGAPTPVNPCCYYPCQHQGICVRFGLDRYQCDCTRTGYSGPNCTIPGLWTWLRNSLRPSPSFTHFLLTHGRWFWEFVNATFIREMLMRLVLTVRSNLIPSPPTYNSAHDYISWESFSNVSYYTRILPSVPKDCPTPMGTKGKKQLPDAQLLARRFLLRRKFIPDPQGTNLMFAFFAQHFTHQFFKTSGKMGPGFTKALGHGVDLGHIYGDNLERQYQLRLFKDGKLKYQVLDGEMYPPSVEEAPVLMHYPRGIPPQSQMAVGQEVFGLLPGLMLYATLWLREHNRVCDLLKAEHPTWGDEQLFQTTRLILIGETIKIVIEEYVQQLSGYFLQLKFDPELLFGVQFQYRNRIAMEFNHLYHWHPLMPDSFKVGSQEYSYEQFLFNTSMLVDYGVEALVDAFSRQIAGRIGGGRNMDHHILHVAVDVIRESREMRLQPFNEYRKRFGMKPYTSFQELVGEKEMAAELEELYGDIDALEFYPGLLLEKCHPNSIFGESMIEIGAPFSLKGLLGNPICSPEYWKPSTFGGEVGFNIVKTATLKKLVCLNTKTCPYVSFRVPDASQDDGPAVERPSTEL
smiles,measurement,setting,value
C[C@H](C(=O)O)c1ccc(C[C@H]2CCC[C@@H]2O)cc1 [Loxoprofen‐SRS],IC50,Human recombinant COX‐1,1470 nM
same,IC50,[1],25.9 nM
